{"source": "paper PMC5859730", "about": "“Dual targeting of the cancer antioxidant network with 1,4-naphthoquinone fused Gold(I) N-heterocyclic carbene complexes” (Chemical Science, 2017)", "key": {"[1]": {"system": "A549 xenografts in zebrafish embryos", "experiment": "Zebrafish A549 tumor xenograft efficacy", "assay_type": "in vivo", "settings": "0.5 μM, 48 to 72 hpf", "procedure": "The anticancer activity of the complex 1 was tested using a qualitative high throughput zebrafish tumor xenograft model (IACUC # I13009).[74] First, zebrafish embryos were divided into 7 groups at an average of 65 embryos per group. Each group was treated with vehicle (DMSO) or complex 1 at variable concentrations to identify the maximum tolerable dose (MTD) (Fig. S29 ^†). […] Therefore, efficacy studies, using zebrafish bearing human tumor xenografts were carried out with complex 1 being administered at the 0.5 μM concentration level.[75]–[77] Briefly, live human lung cancer cells (A549) were labeled with CM-DiI (red) and only live cells were transplanted via injection into the perivitelline space of 30 zebrafish embryos 24 hours post fertilization (hpf).[74],[78],[79] Tumor inoculated zebrafish embryos were allowed to grow for one day till 48 hpf. This allows for establishment of the cancer cells in the host zebrafish embryos. At 48 hpf, the xenograft bearing zebrafish embryos were split into 2 groups (15 embryos per group) and treated with vehicle (DMSO) or complex 1 at 0.5 μM for one additional day (72 hpf), and cancer cell death was observed using acridine orange staining (green). Live zebrafish-A549 tumor xenografts treated with DMSO display features consistent with the presence of tumor cells (red, white arrows in Fig. 10A). […]"}, "A549 cells [2]": {"system": "A549 cells", "experiment": "Detection of intracellular ROS by flow cytometry (CM-H2DCFDA)", "assay_type": "cell-based, human", "settings": "A549, 2.5 μM, 6 h incubation, CM-H2DCFDA"}, "A549 cancer cells": {"system": "A549 cancer cells", "experiment": "Confocal microscopy of ROS localisation", "assay_type": "cell-based, human", "settings": "A549, 1.25 μM, 4 h", "procedure": "To further elucidate the subcellular loci of ROS accentuation, confocal microscopy was employed to fluorescently image A549 cancer cells treated with vehicle (DMSO) and 1.25 μM complex 1 (Fig. 7d). All cells were selectively stained for visualization of ROS accentuation (green, CM-H2DCFDA), mitochondria (red, Mitotracker Red), and nuclei (blue, Hoechst).\nSerum Protein Binding Studies.\naliquots were stored at -80°C.\nin an Edvotek microcentrifuge. […] Samples\nDetection of ROS by Flow Cytometry.\ncells were treated with vehicle only.\ng) at 5 °C. […] The pellet was\nControl samples of unstained cells,\novernight. […] Post incubation, the media was\nAfter incubation, the dye-\nCells were then imaged fluorescently\nLipoate Inhibition Assays.\nwell culture plates. […] The next day, appropriate\nwere added to each well. […] Afterwards, the liquid was then"}, "A549 cells [3]": {"system": "A549 cells", "experiment": "Apoptosis by annexin-V/PI flow cytometry", "assay_type": "cell-based, human", "settings": "A549, 1.25–20 μM, 24 h"}}}
{"smiles": "Cc1cc(C)c(-n2c3c(n(-c4c(C)cc(C)cc4C)[c]2=[Au-]=[c]2n(-c4c(C)cc(C)cc4C)c4c(n2-c2c(C)cc(C)cc2C)C(=O)c2ccccc2C4=O)C(=O)c2ccccc2C3=O)c(C)c1.[Cl][Ag-][Cl]", "note": "[Complex 1, [bis(1,3-dimesityl-4,5-naphthoquino-imidazol-2-ylidene)-gold(I)] [silver(I)dichloride]]", "values": [{"measurement": "Tumor cell death in xenografts (acridine orange staining)", "setting": "[1]", "value": "evidence of apoptosis for the majority of tumor cells"}, {"measurement": "Increase in intracellular ROS (fluorescence cell population shift)", "setting": "A549 cells [2]", "value": 27, "unit": "fold"}, {"measurement": "Subcellular locus of ROS accentuation", "setting": "A549 cancer cells", "value": "ROS accentuation is arising from mitochondria"}, {"measurement": "Mechanism of cell death", "setting": "A549 cells [3]", "value": "induces controlled cell death via an apoptotic mechanism"}]}
